According to patent US11497796B2, “Agents directed against a cis RGMa/neogenin interaction or lipid rafts and use of the same in methods of treatment” (UNIVERSITY HEALTH NETWORK, priority 2013, dated 2022):

B1: 4Ig: four immunoglobulin-like domains of Neogenin, amino acids 1 to 383 of Accession No. AAC59662 (SEQ ID NO:1) (protein, listed as Gallus gallus)
chain: RSGPRSPLTGSVVRTFTPFYFLVEPMDILSVRGASVIMNCSSYCETPPKIEWKKDGTLLNLVSDDRRQLLPDGSLLINSVVHSKHNKPDEGYYQCVATVESLGSIVSRTAKLTVAGLPRFTSQPELSSVYKGNSAILNCEVNVDLAPFVRWEQDRQPLSLDDRVFKLPSGALLIGNATDTDGGFYRCVIESGGTPKYSEEAELKILPDPEEPQSLVFVRQPSSLTKVTGQNAVFPCVAGGFPTPYVRWTKNGEELITEDSERFALRAGGSLLISDVTEEDVGTYTCIADNENETIEAQAELAVQVPPEFLKRPANIYAHESMDIVFECEVTGKPTPTVKWVKNGDVVIPSDYFKIVKEHNLQVLGLVKSDEGFYQCIAENDVGNAQAGAQLIILDLDVAIPTLPPTSLTSATNDHLAPATTGPLPTAPRDVVATLVSTRFIRLTWRTPVSDPQGDNLTYSIFYTKEGINRERVENTSRPGETQVMIQNLMPETVYVFRVVAQNKHGHGESSAPLKVATQPEVQLPGPAPNIRAYAGSPTSVTVTWETPLSGNGEIQNYKLYYMEKGQDSEQDVDVAGLSYTITGLKKYTEYSFRVVAYNKHGPGVSTQDVVVRTLSDVPSAAPQNLTLEARNSKSIMLHWQPPPAGTHSGQITGYKIRYRKVSRKSDVTESVGGTQLFQLIEGLERGTEYNFRIAAMTVNGTGPATDWVSAETFESDLDESRVPEVPSSLHVRPLVTSIVVSWTPPENQNIVVRGYAIGYGIGSPHAQTIKVDYKQRYYTIENLDPSSHYVITLKAFNNVGEGIPLYESAVTRPHSDTSEVDLFVINAPYTPVPDPSPMMPPVGVQASILSHDTIRITWADNSLPKNQKITDARYYTVRWKTNIPANTKYKTANATTLSYLVTGLKPNTLYEFSVMVTKGRRSSTWSMTAHGTTFELVPTSPPKDVTVVSKEGKPRTIIVNWQPPSEANGKITGYIIYYSTDVNAEIHDWVIEPVVGNRLTHQIQELTLDTPYYFKIQARNSKGMGPMSEAVQFRTPKAESSDKMPNDQASGSAGKGSRPVDVGPDYKPPLSGSNSPHGSPTSPLDSNMLLVIIVSVGVITIVIVVIVAVFCTRRTTSHQKKKRAACKSVNGSHKYKGNSKDVKPPDLWIHHERLELKPIDKSPDPNPIMTDTPIPRNSQDITPVDNSMDSNIHQRRNSYRGHESEDSMSTLAGRRGMRPKMMMPFDSQPPQPVISAHPIHSLDNPHHHFHSGSLASPTRSYLHHQVSPWPVGTSMSHSDRANSTESVRNTPSSDTMPASSSQPCADHQDPDSSSGAYLGSAQEEDAAQSLPTAHVRPSHPLKSFAVPAVPAAGSAYDPTLPSTPLLTQQAPSHPVHSVKTASIGTLGRTRPPMPVVVPSAPDVQETTRMLEDSESSYEPDELTKEMAHLEGLMKDLNAITTA
modifications: Neogenin - Accession No. AAC59662

Assays:
[1] = system: RGC axons in injured optic nerve; experiment: Optic nerve crush, RGC axon regeneration (GAP-43) and intraretinal integrity; format: in vivo, rat; conditions: for intraretinal integrity of RGC axons (CTB-FITC): after optic nerve crush
Description: All animals were female Sprague-Dawley rats weighing 250-300 g, which were kept in a pathogen free environment. […] Injections were performed using a 10-μl Hamilton syringe actuated by a computer controlled Picopump (World Precision Instruments). […] The needle was left in place for 10 min after each injection and slowly withdrawn to prevent reflux of the injected solutions up the needle tract.
Additionally, for crushing nerve surgical procedures, animals were placed in a stereotaxic frame and ventilated with isoflurane (2%; 0.8 L/min O2) through a gas anesthesia mask. […] The optic nerve was crushed using fine self-closing forceps for 6 seconds. Eventually, the orbital contents were gently returned to their original location and the initial incision was closed. Following surgery, under a heat lamp, animal were maintained at 37° C. in the normothermic condition and they were given Ketoprofen (5 mg/mL, dosage for rats: 0.1 mL/100 g bodyweight) and sterile saline to ease postsurgical recovery.
In order to evaluate the effects of 4Ig, N-Raft, and MβCD on RGC survival and regeneration after optic nerve crush, 4 μl intraocular injection of 4Ig (250 ng/μl) and N-Raft (150 ng/μl) solutions were delivered at 3 and 10 days after injury. Additionally, these two groups received 4Ig and N-Raft in a dose of 1 mg/kg, via intrajugular vein at 3 and 10 days postcrush. Separately, animals in MβCD group, received intraperitoneal injection of MβCD at 1000 mg/kg/week for 3 weeks after nerve crush on a once-a-day schedule.
Firstly, RGC axon regeneration and intraretinal integrity was examined at twenty-one days after optic nerve crush. […]. CTB-FITC was anterogradly transported within the axon to reach the synaptic membrane.
RGC axon regeneration was examined at twenty-one days after optic nerve crush. Animals were perfused with 4% paraformaldehyde via the ascending aorta, while the descending aorta was clamped off, and the optic nerves were removed. The nerves were post-fixed overnight in the same fixative solution, plus 30% sucrose in PBS for 7 days at […]. The fixed nerves were consecutively sectioned at 14 μm in thickness with a Leica CM1950 cryostat microtome. The slides were first incubated overnight at 4° C. in primary antisera directed against growth associated protein-43 (GAP-43), a marker of regenerating retinal ganglion cell axons in both neonatal and adult RGCs. Primary antisera (rabbit polyclonal, 1:250, Cell Signaling Technology/NEB) were diluted in PBS containing 0.3% Triton X-100 and 3% normal goat serum. Following primary antibody incubation, sections were rinsed three times for 15 minutes in PBS and followed by three hours incubation with FITC labeled secondary antibody at room temperature.
The slides were then rinsed three times for 15 minutes in PBS before cover slipping with 50:50 glycerol/PBS. The total number of regenerating axon growth cones within bins of the optic nerve, beginning anterior to the crush site and proceeding distally, were quantified. The bins were as follows: 0-250, 250-500, and >500 μm. A total of four equally spaced sections through the width of each optic nerve were examined and quantified using a Leica DM LFSA microscope (20× objective) with an Andor iXon 885+ camera, with EMgain applied.

[2] = system: retinal ganglion cells (RGCs); experiment: Retinal organotypic cultures (whole mounts), propidium iodide cell death; format: cell-based; conditions: for reduction of cell death (relative PI intensity): agent in the medium
Description: (A) HEK293 cells that stably express RGMa (FIG. 11) were transfected with empty plasmid (Ctrl) or Neogenin (Neo). Neogenin induced cell death (arrows) when compared to control. (B) Quantification of cell death in Neogenin-transfected cells that were incubated in BSA (Neo+Ctrl), 4Ig (1 μg/ml), N-Raft (1 μg/ml), Noggin (100 nM), or MβCD (10 mM). […] Data were average±SEM (n=3 independent experiments), *p<0.0001. (C) Representative images and (D) Quantification of cell death in chick E5 tecta electroporated with GFP- and a Neogenin-expression plasmid and then injected with N-RGMa50-99 (Ctrl; 1 μg/ml), 4Ig (1 μg/ml), or N-Raft (1 μg/ml) and subjected to TUNEL assay. […] Data were an average±SEM from 3 different tecta/conditions (*p<0.001). Bar, 100 μm. (E) Representative images and (F) Quantification of retinal whole mounts incubated for 4 days with control peptide (1 μg/ml), 4Ig (1 μg/ml), N-Raft (1 μg/ml), or MβCD (10 mM) and dead cells were stained with Propidium Iodide (PI). Images from 9 whole mounts per condition from 3 independent experiments were taken at the same intensities and the fluorescence measured using ImageJ. […] Bar, 500 μm. (G) Fluorescence micrographs of flat-mounted retinas depicting Fluorogold-labeled retinal ganglion cells (RGCs) in injured retinas at 14 days following axotomy. Control retinas (Ctrl) had few surviving RGCs. 4Ig, N-raft or MβCD increased cell survival. Bar, 200 μm. (H) Representations of the retinal areas selected in our analyses. […] Data were average±SEM (n=6 eyes), *p<0.01.
For this study, retinal organotypic cultures were used, in which axotomy of retinal ganglion cells (RGCs) deprived the cells of tropic factors and induced apoptosis. Cell death was detected using propidium iodide (PI) and all images were taken at the same intensity with the RGC-layer in focus. Cell death was gauged by measuring the relative PI intensity of whole mounts.

[3] = system: temporal retinal explants (axonal outgrowth); experiment: Retinal explants outgrowth assay; format: cell-based, chick; conditions: for outgrowth of retinal explants grown on RGMa proteins, peptide added to medium: 5 μg/ml in the medium
Description: Poly-L-Lysine (SIGMA; 10 μg/ml) coated glass coverslips were treated with Laminin (Invitrogen; 10 μg/ml) and RGMa proteins (5 μg/ml) and incubated for 3 hours at room temperature. Temporal retinal explants were cultured on protein-coated surfaces for 18 hours. To disrupt the lipid rafts, explants were pretreated with 10 mM methyl-β-cyclodextrin (MβCD) for 12 minutes or 2 U/ml cholesterol oxidase (CO) for 1 hour at 37° C. Explants were then fixed with 4% paraformaldehyde (PFA) and stained with Alexa488-phalloidin. Fiber length was quantified using Image Pro 5.0. For immunolocalization, explants were treated with Cholera Toxin B-FITC (C1655; Sigma; 10 mg/mL) and patched, fixed and stained with Neogenin antibody. Retinal ganglion cells (RGCs) were electroporated with RGMa-His and cultured for 18 hours. The cells were fixed and stained with Neogenin and His-tag antibodies.
Retinal explants outgrowth assay. Poly-L-Lysine (PLL; SIGMA; 10 μg/ml) coated glass coverslips were treated with Laminin (10 μg/ml; Invitrogen) and RGMa proteins (5 μg) and incubated for 3 hrs at room temperature. PLL treated coverslips were coated with myelin overnight (6 μg/cm2), followed by coating with Laminin. Temporal retinal explants were cultured on either myelin or protein-coated surfaces in DMEM F-12 media (2% chick serum, 10% FBS) for 18 h. To disrupt rafts, explants were pre-treated with 10 mM MβCD for 12 min or 2 U/ml CO for 1 h at 37° C., washed, and cultured on protein coated coverslips. Explants were then fixed with 4% PFA and stained with Alexa488-fluor-phalloidin (1:50; Molecular Probes). Fiber length was quantified using Image Pro 5.0.
Statistical analysis of retinal outgrowth assays was performed using Student's two-tail t-test using Excel (Microsoft). Results were expressed as the mean±SEM (n=at least 3 independent experiments; 2 duplicates per independent experiment, >10 explants per duplicate).

Molecule | regeneration beyond the lesion site ([1]; 21 days after crush) | intraretinal integrity of RGC axons (CTB-FITC) [1] | reduction of cell death (relative PI intensity) [2] | outgrowth of retinal explants grown on RGMa proteins, peptide added to medium [3] | effect on axonal outgrowth when provided as growth substrate (in trans) ([3]; protein as substrate) | average number of axons per section, 250-500 μm ([1]; IP injection) | average number of axons per section, greater than 500 μm ([1]; IP injection) | average number of axons per section, less than 250 μm ([1]; IP injection) | average number of axons per section higher than controls ([1]; IP injection, all distances) | enhancement of cell survival vs. control ([2]; perturbing lipid rafts) | axonal outgrowth on RGMa proteins after lipid raft disruption ([3]; 10 mM MβCD or 2 U/ml of CO) | increase in number of regenerating axons relative to controls ([1]; 21 days after crush) | number of regenerating axons, greater than 500 μm ([1]; 21 days after crush, controls 76±24) | number of regenerating axons, 250-500 μm ([1]; 21 days after crush, controls 108±12) | number of regenerating axons, less than 250 μm ([1]; 21 days after crush, controls 224±36)
N-Raft: peptide spanning amino acids 28-73 of RGMa (SEQ ID NO:2) (SPCKILKCNSEFWAATSGSHHLGAEETPEFCTALRAYAHCTRRTAR; N-Raft - amino acids 28-73 of RGMa) | comparable to 4Ig | thicker axon bundles throughout the retina | about 40% | restored outgrowth | no effect |  |  |  |  |  |  |  |  |  | 
methyl-β-cyclodextrin [MβCD, reference compound] |  | thicker axon bundles throughout the retina |  |  |  | 10.7±0.9 | 8.4±1.4 | 23.7±1.2 | 7.1 fold | about 50% | restored to control values |  |  |  | 
B1 |  | thicker axon bundles throughout the retina | about 40% | restored outgrowth |  |  |  |  |  |  |  | 5.7 fold | 410±64 | 640±128 | 1134±68
